“Also recorded” adds a separate entry of the source.
Key:
HDAC1-3 = test: HDAC IC50 assay with and without 470 nm light exposure; type: biochemical; conditions: for change of inhibitory activity against HDAC1-3 on light exposure: with vs without exposure (including 1 hr pre-exposure) to 470 nm light
Experimental: (§1) Compounds were added to white 96-well plates containing 40 μL of HDAC assay buffer (50 mM HEPES, 100 mM KCl, 0.05% BSA, 0.001% Tween-20 at pH 7.4) by pin transfer. To the assay plate was added 40 μL of a stock solution of full-length HDAC protein at three times the desired final concentration. After addition the plate was centrifuged to mix the solution while removing air bubbles. […] After which, reads were taken every 15 minutes to follow the fluorogenic release of 7-amino-4-methylcoumarin from the substrate resulting from deacetylase and trypsin enzymatic activity. In between reads the LED excitation device was reaffixed on top of the plate ensuring maximum cis-isomer population. In parallel to this, a second plate was prepared identically and measured for activity but this plate was not excited by our device but rather was covered to prevent any ambient light from shining on the plate. Replicate pairs of plates were performed.
The LED arrays were connected to a micro controller that was programmed to control individual LEDs, LED rows, or LED columns within the array. The controller allowed for modulation of LED intensity by controlling the on/off timing (PWM) or by directly controlling the supplied voltage. The temporal control was <10 ms. The LEDs and microcontroller were powered optionally by a power supply unit connected to a standard 110 V outlet or by a battery-pack, which allowed for use in a cell culture incubator. The LED array was used as lid to illuminate plates from the top and as a stage to illuminate the plates from the bottom, as required by the experimental setup.

MCF7 cells = test: L1000 gene expression profiling / GSEA in MCF7 cells; type: cell-based
Experimental: In order to gain more quantitative insights into the specific genes regulated by the presented inhibitors, and to provide further evidence that the BG inhibitors elicit biological responses similar to the closely related, but light-independent HDAC inhibitors a high-throughput gene expression analysis was performed. Expression profiling was performed in quadruplicate using the L1000™ platform (Genometry, Inc.). Specifically MCF7 cells were treated with various compounds and the transcriptional changes were measured as a function of compound concentration, light exposure intensity, and treatment duration relative to the reference HDAC inhibitors CI994 and “Merck60”.
To assess BG14's nature as an HDAC inhibitor beyond its ability to modulate HDAC and histone acetylation levels, Gene Set Enrichment Analysis (GSEA) was performed between BG14 (max concentration, max amount of light) and the known HDAC inhibitor CI-994 (the same concentration) (FIG. 15D). Very remarkably, the Normalized Enrichment Score (NES) of 3.25 indicates a very high degree of similarity between both expression profiles. The identified 177 On-Target Gene List, (landmark genes regulated by light-dependent BG14_trans only), as well as the 68 Off-Target list (landmark genes regulated in absence of light by BG14_cis) were compared to the list of genes regulated by CI-994. […]

HDAC enzyme = test: HDAC inhibitory activity as a function of light exposure time; type: biochemical; conditions: continuous 470 nm light, measured in 15 min intervals
Experimental: The activation of the photoswitchable inhibitors depends on the light energy and the exposure time (as predicted by our model). […] Following pre-incubation of the HDAC enzyme and respective small molecule inhibitor, the enzyme substrate was added and the assay plate was continuously exposed to light (470 nm). Inhibitory activities were measured in 15 min intervals.

HDAC3 = molecular target: T1, HDAC3 (Homo sapiens, UniProt O15379); test: Light-dependent HDAC3 biochemical assay (acetyl-lysine tripeptide based on acH4K12); conditions: for inhibition of HDAC3 enzymatic activity: in the presence and absence of light
T1 construct: 40 μL of a stock solution of full-length HDAC protein at three times the desired final concentration
T1 sequence (O15379 whole entry): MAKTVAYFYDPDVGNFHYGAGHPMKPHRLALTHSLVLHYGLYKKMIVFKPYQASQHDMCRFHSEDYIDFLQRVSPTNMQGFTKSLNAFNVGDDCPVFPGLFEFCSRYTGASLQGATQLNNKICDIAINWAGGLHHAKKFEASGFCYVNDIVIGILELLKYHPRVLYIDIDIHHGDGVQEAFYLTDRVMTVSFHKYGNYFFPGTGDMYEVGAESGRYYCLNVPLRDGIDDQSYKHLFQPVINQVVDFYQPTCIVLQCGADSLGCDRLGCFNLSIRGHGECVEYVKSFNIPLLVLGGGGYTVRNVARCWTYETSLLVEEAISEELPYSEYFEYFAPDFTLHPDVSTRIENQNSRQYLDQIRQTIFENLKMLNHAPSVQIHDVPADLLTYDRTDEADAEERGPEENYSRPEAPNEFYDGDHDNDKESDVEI
T1 sequence (Q9Y618 395-489 partner limits assumed): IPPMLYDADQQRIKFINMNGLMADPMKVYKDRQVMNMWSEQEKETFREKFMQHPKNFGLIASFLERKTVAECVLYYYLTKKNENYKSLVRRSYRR
Experimental: as §1

[1] = test system: acetylation of histone H3 Lysine 9 (H3K9Ac) in MCF7 cells; test: H3K9Ac pharmacodynamic marker in MCF7 cells; type: cell-based; conditions: for histone acetylation above background: in the absence of light; for acetylation of H3K9 relative to vehicle control: in the presence of light
Description: BG14, BG47 and BG48 were profiled in cell culture to assess cellular activity using acetylation of histone H3 Lysine 9 (H3K9Ac) as a pharmacodynamic marker for HDAC inhibition. […] H3K9 acetylation levels directly correlated with light exposure.

Absorbance spectra = type: physicochemical
Description: Compounds were profiled physically to determine absorbance spectra, solubility and kinetics of photo-isomerization kinetics and thermal relaxation (where applicable). The compounds were then profiled biochemically to determine the HDAC inhibitory profile as a function of light exposure. Finally, selected compounds were profiled in cellular assays for the ability to induce hyperacetylation of histone proteins, which represents a biomarker readout for HDAC inhibition.
Compounds studied include those analogs with a push-pull azobenzene system (BG14, BG18, BG47, BG48 and BG49).
Physical characterization of the prototype inhibitors in PBS confirmed that all compounds strongly absorb light in the blue spectrum with maximum absorbance around 470 nm.

HDAC1 = molecular target: T2, HDAC1 (Homo sapiens, UniProt Q13547); test: Half-life experiment (residence time on HDAC1 after light exposure); type: biochemical; conditions: 520 nM, 1 hour 470 nm light, then dark 4, 8 and 17 hours; estimated
T2 construct: 40 μL of a stock solution of full-length HDAC protein at three times the desired final concentration
T2 sequence (Q13547 whole entry): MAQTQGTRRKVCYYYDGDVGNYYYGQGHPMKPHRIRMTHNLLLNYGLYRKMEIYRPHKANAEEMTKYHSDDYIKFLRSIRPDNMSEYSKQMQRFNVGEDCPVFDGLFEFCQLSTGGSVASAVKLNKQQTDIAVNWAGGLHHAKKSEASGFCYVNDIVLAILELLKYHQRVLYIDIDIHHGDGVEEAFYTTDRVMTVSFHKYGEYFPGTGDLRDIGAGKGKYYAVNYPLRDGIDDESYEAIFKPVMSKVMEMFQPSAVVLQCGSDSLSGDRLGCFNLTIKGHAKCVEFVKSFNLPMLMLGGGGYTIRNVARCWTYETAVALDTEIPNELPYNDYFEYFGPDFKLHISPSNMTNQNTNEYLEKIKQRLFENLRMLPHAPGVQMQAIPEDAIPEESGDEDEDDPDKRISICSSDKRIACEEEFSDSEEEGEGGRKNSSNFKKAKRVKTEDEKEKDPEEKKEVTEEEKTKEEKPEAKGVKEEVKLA
Experimental: To directly compare the residence time versus isoform relaxation time BG47 and BG48 were incubated with HDAC1 in alternating columns of a white 96-well plate. Columns 1 and 2 were exposed to 470 nm light (22.9V/0.2 A; 0.1 A per column) from LEDs using our excitation device 17 hours before the assay for 1 hour, resulting in 16 hours of relaxation time before the assay. Columns 3 and 4 were exposed to light 9 hours before the assay for 1 hour providing an 8 hour relaxation period and columns 5 and 6 were exposed 5 hours before the assay providing a 4 hour relaxation time point while columns 11 and 12 were used as controls with no pre-exposure. After the completion of the pre-exposure and relaxation time points a stock solution of trypsin and substrate was added to the plate. The plate was centrifuged and read using a Tecan Safire II every 2 minutes while keeping the plate inside the instrument, eliminating exposure to ambient light.
Both compounds were incubated at 520 nM with HDAC1, exposed for 1 hour of […] light and stored in the dark for 4, 8 and 17 hours, respectively, followed by addition of enzyme substrate. The activity was monitored in reference to unexposed compound with continuous readout measured over 2 hours, estimating a residence half-live of 12-24 hours.

[2] = test system: acetylation of histone H3 Lysine 9; test: Acetylation of histone H3 Lysine 9 in live cells (biomarker for HDAC inhibition); type: cell-based; conditions: immunofluorescent staining, with/without light
Description: The activity of the compounds in live cells was validated using acetylation of histone H3 Lysine 9 as a biomarker for HDAC inhibition.

[3] = Thermal relaxation (cis-to-trans) half-life measurement; conditions: aqueous vs chloroform

Question: Which results are given for `CN(C)c1ccc(N=Nc2ccc(C(=O)Nc3ccccc3N)cc2)cc1` [BG14, N-(2-aminophenyl)-4-((4-(dimethylamino)phenyl)diazenyl)benzamide]?
Answer: change of inhibitory activity against HDAC1-3 on light exposure (HDAC1-3): Significantly increased activity; transcript levels of L1000 landmark genes (MCF7 cells; MCF7, absence of light): did not show any significant changes in transcript levels; expression levels of landmark genes (MCF7 cells; MCF7, increasing amounts of light): significant changes of expression levels of specific landmark genes; activity change as a function of light exposure time (HDAC enzyme): increased activity with increased exposure time; inhibition of HDAC3 enzymatic activity (HDAC3): potent light-dependent inhibitory activity; also recorded: also inhibits HDAC3; dependence of HDAC3 inhibitory activity on light exposure (HDAC3; varying average light exposure): directly proportional to the average light exposure; histone acetylation above background [1]: No significant histone acetylation above background; acetylation of H3K9 relative to vehicle control [1]: strongly induced acetylation of H3K9; increase of H3K9 acetylation compared among the inhibitors ([1]; with light): strongest increase of H3K9 acetylation; absorbance range (Absorbance spectra): absorbed in the blue range of the visible spectrum

Question: Which “change of inhibitory activity against HDAC1-3 on light exposure” value (from here on “change of inhibitory activity”) (HDAC1-3) does the source give for `CC(=O)Nc1ccc(C(=O)Nc2ccccc2N)cc1` [CI-994, reference compound] here?
Answer: Its value is “no differential activity”.

Question: What about the “inhibition of HDAC3 enzymatic activity” value (HDAC3) of the same molecule?
Answer: Its value is “no differential activity”.

Question: With `Nc1ccccc1NC(=O)c1ccc(N=Nc2ccccc2)cc1` [BG12, N-(2-aminophenyl)-4-(phenyldiazenyl)benzamide] as the molecule, how does the absorbance range (Absorbance spectra) read?
Answer: Its absorbance range is “maximally absorbs in the UV range”.

Question: Which “change of inhibitory activity” value (HDAC1-3) does the source give for `CN(C)c1ccc(N=Nc2ccc(C(=O)Nc3ccccc3O)cc2)cc1` [BG18, 4-((4-(dimethylamino)phenyl)diazenyl)-N-(2-hydroxyphenyl)benzamides] here?
Answer: Its value is “Significantly increased activity”.

Question: What about the absorbance range (Absorbance spectra) of the same molecule?
Answer: The absorbance range was “absorbed in the blue range of the visible spectrum”.

Question: For `Nc1ccccc1NC(=O)c1ccc(N=Nc2ccc(C(=O)O)cc2)cc1` [BG19, 4-((4-((2-aminophenyl)carbamoyl)phenyl)diazenyl)benzoic Acid], which absorbance range (Absorbance spectra) is on record?
Answer: Its absorbance range is “maximally absorbs in the UV range”.

Question: For `CN(C)c1ccc(N=Nc2ccc(C(=O)Nc3cc(-c4cccs4)ccc3N)cc2)cc1` [BG47, N-(2-amino-5-(thiophen-2-yl)phenyl)-4-((4-(dimethylamino)phenyl)diazenyl)benzamide], which HDAC isoform selectivity (HDAC1-3) is on record?
Answer: The HDAC isoform selectivity was “HDAC1/2-selective”.

Question: What about the “change of inhibitory activity” value (HDAC1-3) of the same molecule?
Answer: The value was “Significantly increased activity”.

Question: What about the residence time (HDAC1) of the same molecule?
Answer: Its residence time is 720 to 1440 min.

Question: And the “inhibition of HDAC3 enzymatic activity” value (HDAC3)?
Answer: The value was “did not inhibit HDAC3 in the presence and absence of light”.

Question: And the “histone acetylation above background” value [1]?
Answer: Its value is “No significant histone acetylation above background”.

Question: What about the “acetylation of H3K9 relative to vehicle control” value [1] of the same molecule?
Answer: The value was “strongly induced acetylation of H3K9”.

Question: What about the absorbance range (Absorbance spectra) of the same molecule?
Answer: The absorbance range was “absorbed in the blue range of the visible spectrum”.

Question: With `O=C(CCCCCCC(=O)Nc1ccccc1)NO` [SAHA] as the molecule, how does the “activity change as a function of light exposure time” value (HDAC enzyme) read?
Answer: The value was “Only compound BG14 shows increased activity with increased exposure time”.

Question: What does the source list for `CN(C)c1ccc(N=Nc2ccc(C(=O)Nc3ccccc3O)cc2)cc1` [BG49, 4-((4-(dimethylamino)phenyl)diazenyl)-N-(2-hydroxyphenyl)benzamides]?
Answer: hyperacetylation of H3K9 relative to DMSO control [2]: statistically significant induced hyperacetylation of H3K9 relative to DMSO control was observed only following light exposure; inhibition of HDAC3 enzymatic activity (HDAC3): not targeted

Question: For `Nc1ccccc1NC(=O)c1ccc(CNC(=O)OCc2cccnc2)cc1` [MS-275], which “activity change as a function of light exposure time” value (HDAC enzyme) is on record?
Answer: Its value is “Only compound BG14 shows increased activity with increased exposure time”.

Question: With `CN(C)c1ccc(N=Nc2ccc(C(=O)O)cc2)cc1` [DABCYL] as the molecule, how does the “thermal relaxation faster than previous measurements in chloroform” value [3] read?
Answer: The value was “approximately 120 ×”.

Question: Which HDAC isoform selectivity (HDAC1-3) does the source give for `CN(C)c1ccc(N=Nc2ccc(C(=O)Nc3cc(-c4ccccc4)ccc3N)cc2)cc1` [BG48, N-(4-amino-[1,1′-biphenyl]-3-yl)-4-((4-(dimethylamino)phenyl)diazenyl)benzamide] here?
Answer: Its HDAC isoform selectivity is “HDAC1/2-selective”.

Question: What about the “change of inhibitory activity” value (HDAC1-3) of the same molecule?
Answer: The value was “Significantly increased activity”.

Question: And the residence time (HDAC1)?
Answer: The residence time was 720 to 1440 min.

Question: And the “inhibition of HDAC3 enzymatic activity” value (HDAC3)?
Answer: The value was “did not inhibit HDAC3 in the presence and absence of light”.

Question: And the “histone acetylation above background” value [1]?
Answer: Its value is “No significant histone acetylation above background”.

Question: And the “acetylation of H3K9 relative to vehicle control” value [1]?
Answer: Its value is “strongly induced acetylation of H3K9”.

Question: What about the absorbance range (Absorbance spectra) of the same molecule?
Answer: The absorbance range was “absorbed in the blue range of the visible spectrum”.
